≈ marks a conversion by molar mass, not a printed value. Read-outs that look alike come from different tables or passages of the source.
Tests used:
[1] = system: Escherichia coli MG1655; experiment: Antibiotic MIC determination (serial twofold dilutions, OD600 during 17 hours at 37° C.); format: cell-based; details: Escherichia coli
Protocol: The Minimal Inhibitory Concentration (MIC) of the antibiotics was determined under the same culture conditions as the tests using the ATP assay kit. […] An exponentially growing culture (OD600=0.3) was added to each well (60 μl/well) of a sterile microtiter plate containing the test concentration of antibiotic (40 μl/well). The volume was completed to 120 μl with medium and OD600 nm measurements were performed using a microtiter plate reader (Infinite 200 PRO, TECAN) during 17 hours at 37° C.
In all the following experiments, the MIC values were measured for each antibiotic with parameters such as temperature, OD600 and equipment identical to those used for the bioluminescence assay.

[2] = system: E. coli MG1655 reporter cells; format: cell-based, Escherichia coli; details: for Lag before ATP release (shortest, incompressible value): highest concentrations tested
Protocol: The classical luciferase was from Molecular Probes (ATP Determination Kit (A22066)). The thermostable luciferase was from “CheckLite AT100” (kikkoman). The Luciferin-luciferase reagents were prepared following manufacturer instructions. Bacteria from exponentially growing cultures (OD600=0.3) were added to each well (60 μl/well) of a black 96-microtiter plate (Greiner Bio-one, 655076) and 20 μl of the luciferin-luciferase reagent solution was added. The microtiter plate was incubated 5 min at 37° C. for reaction with the luciferase to eliminate traces of extracellular ATP. Then 40 μl of antibiotic solution (3 times concentrated) prepared in the culture medium were added. Bioluminescence of each well was monitored for 4 hours under shaking (218 rpm) and at 28 or 37° C., depending on the experiments (see legends of Figures). The reagent stability in presence or absence of antibiotics was checked in control experiments without bacteria but with 4 pmoles of ATP. Tests were also performed in 384-microtiter plates (Greiner Bio-one, 784076).
Aminoglycosides are bactericidal antibiotics causing translational miscoding with lethal consequences for the cell. Leakage of small molecules following an aminoglycoside shock was previously identified by different methods including radiolabelling. Therefore, the inventors investigated the response of live cells to aminoglycoside stress.

[3] = MG1655, read-out: MIC in MOPS glucose 0.4%, MOPS minimal medium glucose 0.4%, 37° C.
[4] = MG1655, LB medium, OD600 0.15 final, 37° C., read-out: MIC in LB
[5] = antibiotic at 3.125 μg/mL, LB, 37° C.
[6] = antibiotic at 6.25 μg/mL, LB, 37° C.
[7] = antibiotic at 12.5 μg/mL, LB, 37° C.
[8] = antibiotic at 25 μg/mL, LB, 37° C.
[9] = antibiotic at 50 μg/mL, LB, 37° C.
[10] = antibiotic at 100 μg/mL, LB, 37° C.
[11] = MOPS minimal medium (glucose 0.4%), FIG. 11
[12] = antibiotic at 200 μg/mL, LB, 37° C.

SMILES	MIC [1, 3]	MIC [1, 4]	Lag time before ATP [2, 7]	Lag time before ATP [2, 8]	Lag time before ATP [2, 9]	also measured
NCC[C@H](O)C(=O)N[C@@H]1C[C@H](N)[C@@H](O[C@H]2O[C@H](CN)[C@@H](O)[C@H](O)[C@H]2O)[C@H](O)[C@H]1O[C@H]1O[C@H](CO)[C@@H](O)[C@H](N)[C@H]1O [Amikacin]	1.56 µg/mL (≈ 2.66 µM)	12.5 µg/mL (≈ 21.3 µM)	21.6 min	16.0 min	10.5 min	Shape of ATP release trace ([2]; LB medium, 37° C., FIG. 8): bi-phasic; Lag time before ATP [2, 5]: 42 min; Lag time before ATP [2, 6]: 31.0 min
CC1(C)S[C@@H]2[C@H](NC(=O)[C@H](N)c3ccc(O)cc3)C(=O)N2[C@H]1C(=O)O [Amoxicillin]	12.5 µg/mL (≈ 34.2 µM)	12.5 µg/mL (≈ 34.2 µM)	11.4 min	8 min	6.9 min	Lag time before ATP [2, 5]: 39.3 min; Lag time before ATP [2, 6]: 31.4 min
CC1(C)S[C@@H]2[C@H](NC(=O)[C@H](N)c3ccccc3)C(=O)N2[C@H]1C(=O)O [Ampicillin]	25 µg/mL (≈ 71.5 µM)	25 µg/mL (≈ 71.5 µM)	43 min	23 min	13 min	Shape of ATP release trace ([2]; LB medium, 37° C., FIG. 8): multiphasic; Intensity of ATP release signal in minimal medium compared to rich medium (factor of decrease) ([2]; MOPS minimal medium vs LB): 10; Lag time before ATP [2, 6]: 108 min; Lag time before ATP [2, 10]: 9 min; Lag before ATP release (shortest, incompressible value) ([2]; LB, 37° C.): 9 min
CN[C@@H]1[C@@H](O[C@H]2O[C@H](CO)[C@@H](N)[C@H](O)[C@H]2O)OC2C[C@@H](N)[C@@H](O[C@H]3[C@H](O)[C@@H](O)[C@H](N)C[C@@H]3N)OC2[C@@H]1O (stereo partly drawn) [Apramycin]	2.5 µg/mL (≈ 4.63 µM)	20.2 µg/mL (≈ 37.4 µM)	–	–	–	Shape of ATP release trace ([2]; LB medium, 37° C., FIG. 8): bi-phasic; Shape of ATP release trace [2, 11]: monophasic; Lag time before ATP ([2]; antibiotic at 6.75 μg/mL, LB, 37° C.): 60.9 min; Lag time before ATP ([2]; antibiotic at 13.5 μg/mL, LB, 37° C.): 30.0 min; Lag time before ATP ([2]; antibiotic at 27 μg/mL, LB, 37° C.): 13.3 min; Lag time before ATP ([2]; antibiotic at 54 μg/mL, LB, 37° C.): 10.9 min; Lag before ATP release (shortest, incompressible value) ([2]; LB, 37° C.): ~10.9 min
CC[C@H]1OC(=O)[C@H](C)[C@@H](O[C@H]2C[C@@](C)(OC)[C@@H](O)[C@H](C)O2)[C@H](C)[C@@H](O[C@@H]2O[C@H](C)C[C@H](N(C)C)[C@H]2O)[C@](C)(O)C[C@@H](C)CN(C)[C@H](C)[C@@H](O)[C@]1(C)O [Azithromycin]	125 µg/mL (≈ 167 µM)	175 µg/mL (≈ 234 µM)	–	–	–	High dose at which ATP release was observed ([2]; LB, FIG. 9): 2.5 times the MIC; ATP leakage ([2]; highest concentration (400 μg/mL), MOPS minimal medium (glucose 0.4%)): stimulated a ATP leakage
C=CC1=C(C(=O)O)N2C(=O)[C@@H](NC(=O)/C(=N\OCC(=O)O)c3csc(N)n3)[C@H]2SC1 [Cefixime]	50 µg/mL (≈ 110 µM)	50 µg/mL (≈ 110 µM)	17.5 min	16.7 min	15.2 min	Lag time before ATP [2, 10]: 14.9 min; Lag time before ATP [2, 12]: 14.2 min
CO[C@@]1(NC(=O)Cc2cccs2)C(=O)N2C(C(=O)O)=C(COC(N)=O)CS[C@@H]21 [Cefoxitin]	100 µg/mL (≈ 234 µM)	50 µg/mL (≈ 117 µM)	10.9 min	6.1 min	4.9 min	Lag time before ATP [2, 10]: 4.9 min; Lag time before ATP [2, 12]: 4.9 min
CC(C)(O/N=C(\C(=O)N[C@@H]1C(=O)N2C(C(=O)[O-])=C(C[n+]3ccccc3)CS[C@H]12)c1csc(N)n1)C(=O)O [Ceftazidime]	100 µg/mL (≈ 183 µM)	100 µg/mL (≈ 183 µM)	–	40.3 min	8.6 min	Lag time before ATP [2, 10]: 8.3 min; Lag time before ATP [2, 12]: 8.0 min; Lag time before ATP ([2]; antibiotic at 400 μg/mL, LB, 37° C.): 7.8 min
CO/N=C(\C(=O)N[C@@H]1C(=O)N2C(C(=O)O)=C(CSc3nc(=O)c(=O)[nH]n3C)CS[C@H]12)c1csc(N)n1 [Ceftriaxone]	6.25 µg/mL (≈ 11.3 µM)	12.5 µg/mL (≈ 22.5 µM)	19.2 min	16.5 min	13.9 min	Lag time before ATP [2, 5]: 29.7 min; Lag time before ATP [2, 6]: 21.2 min
CC1=C(C(=O)O)N2C(=O)[C@@H](NC(=O)[C@H](N)c3ccccc3)[C@H]2SC1 [Cephalexin]	17.4 µg/mL (≈ 50.1 µM)	34.7 µg/mL (≈ 99.9 µM)	–	–	–	Shape of ATP release trace ([2]; LB medium, 37° C., FIG. 8): multiphasic; Shape of ATP release trace [2, 11]: monophasic; Lag time before ATP ([2]; antibiotic at 8.8 μg/mL, LB, 37° C.): 34.3 min; Lag time before ATP ([2]; antibiotic at 17.5 μg/mL, LB, 37° C.): 9.45 min; Lag time before ATP ([2]; antibiotic at 35 μg/mL, LB, 37° C.): 5 min; Lag time before ATP ([2]; antibiotic at 70 μg/mL, LB, 37° C.): 3.6 min; Lag time before ATP ([2]; antibiotic at 140 μg/mL, LB, 37° C.): 3.6 min; Lag before ATP release (shortest, incompressible value) ([2]; LB, 37° C.): 3.6 min
O=C(N[C@H](CO)[C@H](O)c1ccc([N+](=O)[O-])cc1)C(Cl)Cl [Chloramphenicol]	25 µg/mL (≈ 77.4 µM)	25 µg/mL (≈ 77.4 µM)	–	–	–	ATP leakage ([2]; high concentrations, twice or four times the MIC, LB, FIG. 9): important leakage
O=C(O)c1cn(C2CC2)c2cc(N3CCNCC3)c(F)cc2c1=O [Ciprofloxacin]	6.25 µg/mL (≈ 18.9 µM)	25 µg/mL (≈ 75.4 µM)	–	–	–	–
CC[C@H]1OC(=O)[C@H](C)[C@@H](O[C@H]2C[C@@](C)(OC)[C@@H](O)[C@H](C)O2)[C@H](C)[C@@H](O[C@@H]2O[C@H](C)C[C@H](N(C)C)[C@H]2O)[C@](C)(O)C[C@@H](C)C(=O)[C@H](C)[C@@H](O)[C@]1(C)O [Erythromycin]	1600 µg/mL (≈ 2180 µM)	400 µg/mL (≈ 545 µM)	–	–	–	Amplitude of ATP release ([2]; bacteriostatic antibiotics, LB, FIG. 9): very weak amplitude
C[C@@H]1O[C@@H]1P(=O)(O)O [Fosfomycin]	100 µg/mL (≈ 724 µM)	50 µg/mL (≈ 362 µM)	28.6 min	26.2 min	21.8 min	Lag time before ATP [2, 10]: 20.2 min; Lag time before ATP [2, 12]: 18.6 min
NC[C@H]1O[C@H](O[C@H]2[C@H](O)[C@@H](O[C@H]3O[C@H](CO)[C@@H](O)[C@H](N)[C@H]3O)[C@H](N)C[C@@H]2N)[C@H](O)[C@@H](O)[C@@H]1O [Kanamycin]	3 µg/mL (≈ 6.19 µM)	25 µg/mL (≈ 51.6 µM)	25 min	16 min	11 min	Lag time before ATP [2, 6]: 50 min; Lag time before ATP [2, 10]: 8 min; Lag before ATP release (shortest, incompressible value) ([2]; LB, 37° C.): ~4.7 min
CCn1cc(C(=O)O)c(=O)c2ccc(C)nc21 [Nalidixic acid]	–	–	–	–	–	MIC ([1]; MG1655, read-out: MIC in LB): 256 µg/mL (≈ 1100 µM); MIC ([1]; MG1655, read-out: MIC in MOPS glucose 0.4%): 256 µg/mL (≈ 1100 µM); Lag time before ATP ([2]; antibiotic at 16 μg/mL, LB, 37° C.): 127.3 min; Lag time before ATP ([2]; antibiotic at 32 μg/mL, LB, 37° C.): 114.1 min; Lag time before ATP ([2]; antibiotic at 64 μg/mL, LB, 37° C.): 88.9 min; Lag time before ATP ([2]; antibiotic at 128 μg/mL, LB, 37° C.): 79.1 min; Lag time before ATP ([2]; antibiotic at 258 μg/mL, LB, 37° C.): 50.8 min; Lag time before ATP ([2]; antibiotic at 516 μg/mL, LB, 37° C.): 46.4 min
O=C1CN(/N=C/c2ccc([N+](=O)[O-])o2)C(=O)N1 [Nitrofurantoin]	50 µg/mL (≈ 210 µM)	50 µg/mL (≈ 210 µM)	–	–	–	–
CO[C@@H]1[C@@H](OC(N)=O)[C@@H](O)[C@H](Oc2ccc3c(O)c(NC(=O)c4ccc(O)c(CC=C(C)C)c4)c(=O)oc3c2C)OC1(C)C [Novobiocin]	–	200 µg/mL (≈ 326 µM)	–	–	–	–
CC1COc2c(N3CCN(C)CC3)c(F)cc3c(=O)c(C(=O)O)cn1c23 (stereo not drawn) [Ofloxacin]	4 µg/mL (≈ 11.1 µM)	4 µg/mL (≈ 11.1 µM)	–	–	–	Lag time of ATP release in minimal medium compared to rich medium (factor of decrease) ([2]; MOPS minimal medium vs LB): 2; Lag time before ATP ([2]; antibiotic at 1 μg/mL, LB, 37° C.): 105 min; Lag time before ATP ([2]; antibiotic at 2 μg/mL, LB, 37° C.): 95 min; Lag time before ATP ([2]; antibiotic at 4 μg/mL, LB, 37° C.): 84 min; Lag time before ATP ([2]; antibiotic at 8 μg/mL, LB, 37° C.): 77 min; Lag before ATP release (shortest, incompressible value) ([2]; LB, 37° C.): 77 min
CCN1CCN(C(=O)N[C@@H](C(=O)N[C@@H]2C(=O)N3[C@@H]2SC(C)(C)[C@@H]3C(=O)O)c2ccccc2)C(=O)C1=O [Piperacillin]	–	200 µg/mL (≈ 386 µM)	–	–	–	–
Cc1cc(NS(=O)(=O)c2ccc(N)cc2)no1 [Sulfamethoxazole]	1600 µg/mL (≈ 6320 µM)	–	–	–	–	–

Source: patent publication US12595504B2, “Methods for screening compounds for bactericidal activity and for determining the sensitivity of bacterial samples” (priority 2020, dated 2026)
